Reference: ChEMBL document CHEMBL3885861, “Open TG-GATES”

Species on record: Rattus norvegicus
Assay: Open TG-GATES - Regimen: Daily Repeat
Type: toxicity, organism-based, Sprague-Dawley
Parameters: regimen Daily Repeat, gender Male, age 6 weeks
Conditions: in vivo, po, route diet; for Hb / Ht / MCH / MCHC / MCV / Plat / RBC / Ret / WBC: tissue Blood; for KIDNEY_L / KIDNEY_R / KIDNEY_TOTAL: tissue Kidney; for LIVER: tissue Liver
[1] = 72 h, dose 0 %, dose level Control, time 3 day
[2] = 72 h, dose 9999 %, dose level High, time 3 day
[3] = 72 h, tissue Plasma, dose 0 %, dose level Control, time 3 day
[4] = 72 h, tissue Plasma, dose 9999 %, dose level High, time 3 day
[5] = […], dose 0 %, dose level Control, time 7 day
[6] = […], dose 0 %, dose level Control, time 14 day
[7] = […], dose 0 %, dose level Control, time 28 day
[8] = […], dose 9999 %, dose level High, time 7 day
[9] = […], dose 9999 %, dose level High, time 14 day
[10] = […], dose 9999 %, dose level High, time 28 day

Compound: CC(C)CCC[C@@H](C)[C@H]1CC[C@H]2[C@@H]3CC=C4C[C@@H](O)CC[C@]4(C)[C@H]3CC[C@]12C.C[C@H](CCC(=O)[O-])[C@H]1CC[C@@H]2[C@]1(C)[C@@H](O)C[C@@H]1[C@@]3(C)CC[C@@H](O)C[C@H]3C[C@@H](O)[C@@]21C.[Na+] [cholesterol + sodium cholate]
- TERMINAL_BW [1]: 232.1 g
- TERMINAL_BW [2]: 241.9 g
- Hb [1]: 12.9 g/dL
- Ht [1]: 35.6%
- MCH [1]: 23.1 pg
- MCHC [1]: 36.2%
- MCV [1]: 63.7 fL
- Plat [1]: 121.7 x10_4/uL
- RBC [1]: 558.2 x10_4/ul
- Ret [1]: 6.9%
- WBC [1]: 5.6 x10_2/uL
- Hb [2]: 12.6 g/dL
- Ht [2]: 35%
- MCH [2]: 22.5 pg
- MCHC [2]: 35.9%
- MCV [2]: 62.6 fL
- Plat [2]: 107.6 x10_4/uL
- RBC [2]: 559.2 x10_4/ul
- Ret [2]: 7%
- WBC [2]: 5.8 x10_2/uL
- KIDNEY_L [1]: 1 g
- KIDNEY_R [1]: 1 g
- KIDNEY_TOTAL [1]: 2 g
- KIDNEY_R [2]: 1.1 g
- KIDNEY_TOTAL [2]: 2.1 g
- LIVER [1]: 10.6 g
- LIVER [2]: 12.1 g
- A/G [3]: 1
- ALP [3]: 1907.2 IU/L
- ALT [3]: 41.8 IU/L
- AST [3]: 69 IU/L
- BUN [3]: 17.8 mg/dL
- CRE [3]: 0.2 mg/dL
- Ca [3]: 10.6 mg/dL
- Cl [3]: 102.1 meq/L
- DBIL [3]: 0 mg/dL
- GLC [3]: 176 mg/dL
- IP [3]: 7.2 mg/dL
- K [3]: 4.3 meq/L
- LDH [3]: 113.2 IU/L
- Na [3]: 139.7 meq/L
- PL [3]: 161.4 mg/dL
- RALB [3]: 2.9 g/dL
- TBIL [3]: 0 mg/dL
- TC [3]: 75 mg/dL
- TG [3]: 106.9 mg/dL
- TP [3]: 5.7 g/dL
- gamma-GTP [3]: 0.9 IU/L
- ALP [4]: 2118 IU/L
- ALT [4]: 42.4 IU/L
- AST [4]: 72.2 IU/L
- BUN [4]: 20.4 mg/dL
- Ca [4]: 10.8 mg/dL
- Cl [4]: 101.4 meq/L
- GLC [4]: 182.8 mg/dL
- IP [4]: 7.7 mg/dL
- K [4]: 4.5 meq/L
- LDH [4]: 149.4 IU/L
- Na [4]: 139.4 meq/L
- PL [4]: 157.4 mg/dL
- TC [4]: 187.2 mg/dL
- TG [4]: 136.6 mg/dL
- TP [4]: 5.9 g/dL
- gamma-GTP [4]: 0.8 IU/L
- TERMINAL_BW [5]: 274.4 g
- TERMINAL_BW [6]: 313.6 g
- TERMINAL_BW [7]: 422.8 g
- TERMINAL_BW [8]: 281.4 g
- TERMINAL_BW [9]: 337.1 g
- TERMINAL_BW [10]: 433.7 g
- Hb [5]: 13.2 g/dL
- Ht [5]: 36.5%
- MCH [5]: 22.4 pg
- MCHC [5]: 36.1%
- MCV [5]: 62.2 fL
- Plat [5]: 127.7 x10_4/uL
- RBC [5]: 587.8 x10_4/ul
- Ret [5]: 5.5%
- WBC [5]: 8.6 x10_2/uL
- Hb [6]: 12.6 g/dL
- Ht [6]: 38.3%
- MCH [6]: 19.3 pg
- MCHC [6]: 32.8%
- MCV [6]: 58.7 fL
- Plat [6]: 111.1 x10_4/uL
- RBC [6]: 654 x10_4/ul
- Ret [6]: 4.2%
- WBC [6]: 44.3 x10_2/uL
- Hb [7]: 13.3 g/dL
- Ht [7]: 39.2%
- MCH [7]: 18.8 pg
- MCHC [7]: 33.9%
- MCV [7]: 55.4 fL
- Plat [7]: 101.1 x10_4/uL
- RBC [7]: 707.2 x10_4/ul
- Ret [7]: 3%
- WBC [7]: 55.7 x10_2/uL
- Hb [8]: 12.5 g/dL
- Ht [8]: 34.9%
- MCH [8]: 21.6 pg
- MCHC [8]: 35.7%
- MCV [8]: 60.7 fL
- Plat [8]: 142.4 x10_4/uL
- RBC [8]: 574.8 x10_4/ul
- Ret [8]: 5.6%
- WBC [8]: 7.3 x10_2/uL
- Hb [9]: 11.8 g/dL
- Ht [9]: 36%
- MCH [9]: 19.1 pg
- MCHC [9]: 32.7%
- MCV [9]: 58.3 fL
- Plat [9]: 148.5 x10_4/uL
- RBC [9]: 617.4 x10_4/ul
- Ret [9]: 4.7%
- WBC [9]: 30.6 x10_2/uL
- Hb [10]: 13.1 g/dL
- Ht [10]: 39%
- MCHC [10]: 33.6%
- MCV [10]: 55.9 fL
- Plat [10]: 116.2 x10_4/uL
- RBC [10]: 698.8 x10_4/ul
- Ret [10]: 3.2%
- WBC [10]: 50.2 x10_2/uL
- KIDNEY_L [5]: 1.1 g
- KIDNEY_R [5]: 1.1 g
- KIDNEY_TOTAL [5]: 2.2 g
- KIDNEY_L [6]: 1.2 g
- KIDNEY_R [6]: 1.2 g
- KIDNEY_TOTAL [6]: 2.3 g
- KIDNEY_L [7]: 1.4 g
- KIDNEY_R [7]: 1.4 g
